Source: publication PMC11839852, “Preclinical comparison of (radio)lanthanides using mass spectrometry and nuclear imaging techniques: biodistribution of lanthanide-based tumor-targeting agents and lanthanides in ionic form” (European Journal of Nuclear Medicine and Molecular Imaging, 2024)
Read-outs that look alike come from different tables or passages of the source. Marks after values point to notes of the source that are not given here.

Test system: PC-3 PIP/flu tumor-bearing mice
Details: Ln-PSMA-617; for Tissue uptake: Blood / Tissue uptake: Bone / Tissue uptake: Heart / Tissue uptake: Intestines / Tissue uptake: Kidneys / Tissue uptake: Liver / Tissue uptake: Lung / Tissue uptake: Muscle / Tissue uptake: Salivary glands / Tissue uptake: Spleen / Tissue uptake: Stomach: PC-3 PIP/flu tumor-bearing mice; for Tissue uptake: PC-3 flu tumor: PSMA-negative xenograft; for Tissue uptake: PC-3 PIP tumor: PSMA-positive xenograft; for PC-3 PIP tumor-to-background organ ratios: Tumor-to-blood / PC-3 PIP tumor-to-background organ ratios: Tumor-to-liver: estimated ratios (organ <0.5% ID/g)

Row | Structure (SMILES) | PC-3 PIP tumor-to-background organ ratios: Tumor-to-kidney (1 h p.i.) | Tissue uptake: Blood (1 h p.i.) | Tissue uptake: Bone (1 h p.i.) | Tissue uptake: Heart (1 h p.i.) | Tissue uptake: Intestines (1 h p.i.) | Tissue uptake: Kidneys (1 h p.i.) | Tissue uptake: Liver (1 h p.i.) | Tissue uptake: Lung (1 h p.i.) | Tissue uptake: Muscle (1 h p.i.) | Tissue uptake: Salivary glands (1 h p.i.) | Tissue uptake: Spleen (1 h p.i.) | Tissue uptake: Stomach (1 h p.i.) | Tissue uptake: PC-3 flu tumor (1 h p.i.) | Tissue uptake: PC-3 PIP tumor (1 h p.i.) | PC-3 PIP tumor-to-background organ ratios: Tumor-to-blood (1 h p.i.) | PC-3 PIP tumor-to-background organ ratios: Tumor-to-liver (1 h p.i.) | PC-3 PIP tumor-to-background organ ratios: Tumor-to-kidney (4 h p.i.) | Tissue uptake: Blood (4 h p.i.) | Tissue uptake: Bone (4 h p.i.) | Tissue uptake: Heart (4 h p.i.) | further results
1 | O=C([O-])CN1CCN(CC(=O)[O-])CCN(CC(=O)NC[C@H]2CC[C@H](C(=O)N[C@@H](Cc3ccc4ccccc4c3)C(=O)NCCCC[C@H](NC(=O)N[C@@H](CCC(=O)O)C(=O)O)C(=O)O)CC2)CCN(CC(=O)[O-])CC1.[153Eu+3] [[^153Eu]Eu-PSMA-617] | 3.3 ± 1.1 | <0.5 % ID/g | <0.5 % ID/g | 0.52 ± 0.42 % ID/g | <0.5 % ID/g | 8.1 ± 3.5 % ID/g | <0.5 % ID/g | <0.5 % ID/g | <0.5 % ID/g | <0.5 % ID/g | 0.51 ± 0.17 % ID/g | <0.5 % ID/g | <0.5 % ID/g | 24 ± 3 % ID/g | >50^* | >50^* | 23 ± 3 | <0.5 % ID/g | <0.5 % ID/g | <0.5 % ID/g | Tissue uptake: Intestines (4 h p.i.): <0.5 % ID/g; Tissue uptake: Kidneys (4 h p.i.): 1.1 ± 0.3 % ID/g; Tissue uptake: Liver (4 h p.i.): <0.5 % ID/g; Tissue uptake: Lung (4 h p.i.): <0.5 % ID/g; Tissue uptake: Muscle (4 h p.i.): <0.5 % ID/g; Tissue uptake: Salivary glands (4 h p.i.): <0.5 % ID/g; Tissue uptake: Spleen (4 h p.i.): <0.5 % ID/g; Tissue uptake: Stomach (4 h p.i.): <0.5 % ID/g; Tissue uptake: PC-3 flu tumor (4 h p.i.): <0.5 % ID/g; Tissue uptake: PC-3 PIP tumor (4 h p.i.): 23 ± 3 % ID/g; PC-3 PIP tumor-to-background organ ratios: Tumor-to-blood (4 h p.i.): >46^*; PC-3 PIP tumor-to-background organ ratios: Tumor-to-liver (4 h p.i.): >46^*
2 | O=C([O-])CN1CCN(CC(=O)[O-])CCN(CC(=O)NCC2CCC(C(=O)NC(Cc3ccc4ccccc4c3)C(=O)NCCCCC(NC(=O)NC(CCC(=O)O)C(=O)O)C(=O)O)CC2)CCN(CC(=O)[O-])CC1.[Tb+3] (stereo not shown) [[^159Tb]Tb-PSMA-617] | 3.3 ± 1.0 | <0.5 % ID/g | <0.5 % ID/g | <0.5 % ID/g | <0.5 % ID/g | 8.4 ± 3.5 % ID/g | <0.5 % ID/g | <0.5 % ID/g | <0.5 % ID/g | <0.5 % ID/g | <0.5 % ID/g | <0.5 % ID/g | <0.5 % ID/g | 25 ± 3 % ID/g | >51^* | >51^* | 24 ± 3 | <0.5 % ID/g | <0.5 % ID/g | <0.5 % ID/g | Tissue uptake: Intestines (4 h p.i.): <0.5 % ID/g; Tissue uptake: Kidneys (4 h p.i.): 1.0 ± 0.2 % ID/g; Tissue uptake: Liver (4 h p.i.): <0.5 % ID/g; Tissue uptake: Lung (4 h p.i.): <0.5 % ID/g; Tissue uptake: Muscle (4 h p.i.): <0.5 % ID/g; Tissue uptake: Salivary glands (4 h p.i.): <0.5 % ID/g; Tissue uptake: Spleen (4 h p.i.): <0.5 % ID/g; Tissue uptake: Stomach (4 h p.i.): <0.5 % ID/g; Tissue uptake: PC-3 flu tumor (4 h p.i.): <0.5 % ID/g; Tissue uptake: PC-3 PIP tumor (4 h p.i.): 23 ± 3 % ID/g; PC-3 PIP tumor-to-background organ ratios: Tumor-to-blood (4 h p.i.): >46^*; PC-3 PIP tumor-to-background organ ratios: Tumor-to-liver (4 h p.i.): >46^*
